Where “and” joins values, the source holds several entries; their conditions need not be identical. Equal entries are not always repeated.
Test: Anticancer human tumor 997537-175-T-J1-PDC patient-derived colon adenocarcinoma cell line growth inhibition [POLQ]
Conditions: 997537-175-T-J1-PDC complex spheroid viability, combination with POLQ inhibitors; for viability, T/C: stronger effect = lower value
How it was run: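 Growth inhibition in 3D: complex spheroids (tumor PDC, HUVEC, MSC) treated with POLQ inhibitor combinations; where Cmax unknown, highest tested concentration 10 microM, except SN-38 at 1 microM.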

[1] = curve of first compound, second compound 0.0316 µM
[2] = curve of first compound, second compound 0.1 µM
[3] = curve of first compound, second compound 0.316 µM
[4] = curve of first compound, second compound 1 µM
[5] = curve of first compound, second compound 3.16 µM
[6] = curve of first compound, second compound 10 µM
[7] = second compound 0.0316 µM, first compound 0.0316 µM
[8] = second compound 0.0316 µM, first compound 0.1 µM
[9] = second compound 0.0316 µM, first compound 0.316 µM
[10] = second compound 0.0316 µM, first compound 1 µM
[11] = second compound 0.1 µM, first compound 0.0316 µM
[12] = second compound 0.1 µM, first compound 0.1 µM
[13] = second compound 0.1 µM, first compound 0.316 µM
[14] = second compound 0.1 µM, first compound 1 µM
[15] = second compound 0.316 µM, first compound 0.0316 µM
[16] = second compound 0.316 µM, first compound 0.1 µM
[17] = second compound 0.316 µM, first compound 0.316 µM
[18] = second compound 0.316 µM, first compound 1 µM
[19] = second compound 1 µM, first compound 0.0316 µM
[20] = second compound 1 µM, first compound 0.1 µM
[21] = second compound 1 µM, first compound 0.316 µM
[22] = second compound 1 µM, first compound 1 µM
[23] = second compound 3.16 µM, first compound 0.0316 µM
[24] = second compound 3.16 µM, first compound 0.1 µM
[25] = second compound 3.16 µM, first compound 0.316 µM
[26] = second compound 3.16 µM, first compound 1 µM
[27] = second compound 10 µM, first compound 0.0316 µM
[28] = second compound 10 µM, first compound 0.1 µM
[29] = second compound 10 µM, first compound 0.316 µM
[30] = second compound 10 µM, first compound 1 µM
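Note: luminescence signal used as a surrogate for viable cells; spheroids exposed to drugs for seven days before readout.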

`COc1cccc(OCCCN)c1-c1cc(Nc2cnc(C#N)cn2)n[nH]1` + Cc1cccc(N(C)C(=O)C2C(O)CCN2c2nc(C)cc(C(F)(F)F)c2C#N)c1 showed an IC50 [1] of 0.131 µM, an IC50 [2] of 0.139 µM and an IC50 [3] of 0.125 µM. It also gave an IC50 [4] of 0.039 µM, an IC50 [5] of 0.0237 µM and an IC50 [6] of 0.135 µM. The viability, T/C (second compound 0.0316 µM, first compound 0.00316 µM) was 92.7%, the viability, T/C (second compound 0.0316 µM, first compound 0.01 µM) was 97.7% and the viability, T/C [7] was 79%. It also gave a viability, T/C [8] of 60.8%, a viability, T/C [9] of 22.5% and a viability, T/C [10] of 27.9%. The viability, T/C (second compound 0.1 µM, first compound 0.00316 µM) was 111%, the viability, T/C (second compound 0.1 µM, first compound 0.01 µM) was 107% and the viability, T/C [11] was 50.1%. The viability, T/C [12] was 73%, the viability, T/C [13] was 32.8% and the viability, T/C [14] was 31.2%. It also gave a viability, T/C (second compound 0.316 µM, first compound 0.00316 µM) of 100%, a viability, T/C (second compound 0.316 µM, first compound 0.01 µM) of 79.8% and a viability, T/C [15] of 70.1%. The viability, T/C [16] was 45.3%, the viability, T/C [17] was 48.2% and the viability, T/C [18] was 20%. For the same compound, the viability, T/C (second compound 1 µM, first compound 0.00316 µM) was 101%, the viability, T/C (second compound 1 µM, first compound 0.01 µM) was 79.1% and the viability, T/C [19] was 59.6%. It also gave a viability, T/C [20] of 25.9%, a viability, T/C [21] of 29.5% and a viability, T/C [22] of 27.4%. It also gave a viability, T/C (second compound 3.16 µM, first compound 0.00316 µM) of 86.6%, a viability, T/C (second compound 3.16 µM, first compound 0.01 µM) of 85.4% and a viability, T/C [23] of 38%. The viability, T/C [24] was 20.6%, the viability, T/C [25] was 18.4% and the viability, T/C [26] was 36%. The viability, T/C (second compound 10 µM, first compound 0.00316 µM) was 86.8%, the viability, T/C (second compound 10 µM, first compound 0.01 µM) was 73.6% and the viability, T/C [27] was 62.9%. It also gave a viability, T/C [28] of 45.8%, a viability, T/C [29] of 53.1% and a viability, T/C [30] of 30.1%.

For `CCc1cc2c(N3CCc4c(cc(Cn5ccnc5)cc4-c4cn(C)nc4C(F)(F)F)C3=O)ccnc2c(OC)n1`, the viability, T/C (compound 0.0316 µM) was 95.3% and 92.8% and 103%, the viability, T/C (compound 0.1 µM) was 79.7% and 104% and 98.2% and the viability, T/C (compound 0.316 µM) was 98.5% and 76.2% and 96.9%. The viability, T/C (compound 1 µM) was 84.6% and 90.4% and 91.4%, the viability, T/C (compound 3.16 µM) was 76.5% and 68.3% and 72.7% and the viability, T/C (compound 10 µM) was 57.5% and 79.9% and 53.8%. For the same compound, the IC50 (curve of compound) was over 10 µM.

In the case of `CC1COCCN1c1cc(C2(O)CC3CCC(C2)O3)c2cnn(-c3ccn[nH]3)c2n1` (stereo not drawn), the viability, T/C (compound 0.0316 µM) is reported as 80.8% and 88.2% and 99.8%, the viability, T/C (compound 0.1 µM) is reported as 88.8% and 81.9% and 65.3% and the viability, T/C (compound 0.316 µM) is reported as 57.4% and 42.1% and 58.8%. For the same compound, the viability, T/C (compound 1 µM) was 49% and 58.5% and 56.2%, the viability, T/C (compound 3.16 µM) was 61.2% and 67.5% and 61.5% and the viability, T/C (compound 10 µM) was 62.1% and 47.6% and 48.3%. It also gave an IC50 (curve of compound) of over 10 µM.

For `O=C(Nc1ccc(O)c(NS(=O)(=O)c2ccc(F)cc2)c1)c1ccc(-c2ccccc2)cc1`, the viability, T/C (compound 0.0316 µM) was 103% and 89.4% and 123%, the viability, T/C (compound 0.1 µM) was 101% and 92.4% and 98.4% and the viability, T/C (compound 0.316 µM) was 113% and 97.4% and 81.8%. The viability, T/C (compound 1 µM) was 88.3% and 109% and 103%, the viability, T/C (compound 3.16 µM) was 99.2% and 116% and 91.7% and the viability, T/C (compound 10 µM) was 98.9% and 103% and 91.2%. The IC50 (curve of compound) was over 10 µM.

In the case of `CCCS(=O)(=O)Nc1ccc(F)c(C(=O)c2c[nH]c3ncc(-c4ccc(Cl)cc4)cc23)c1F` + Nc1ccc(C#CCN(C(=O)Cc2ncc(C(F)(F)F)cc2C(F)(F)F)c2ccc(F)cc2)nn1, the IC50 [1] is reported as 5.51 µM, the IC50 [2] is reported as 7.31 µM and the IC50 [3] is reported as 5.97 µM. For the same compound, the IC50 [4] was 5.25 µM, the IC50 [5] was 6 µM and the IC50 [6] was 6.76 µM. It also gave a viability, T/C [7] of 81.8%, a viability, T/C [8] of 88.9% and a viability, T/C [9] of 80.7%. The viability, T/C [10] was 70.3%, the viability, T/C (second compound 0.0316 µM, first compound 3.16 µM) was 74.2% and the viability, T/C (second compound 0.0316 µM, first compound 10 µM) was 27.2%. It also gave a viability, T/C [11] of 101%, a viability, T/C [12] of 86.5% and a viability, T/C [13] of 80.9%. For the same compound, the viability, T/C [14] was 71.3%, the viability, T/C (second compound 0.1 µM, first compound 3.16 µM) was 82.8% and the viability, T/C (second compound 0.1 µM, first compound 10 µM) was 37.9%. For the same compound, the viability, T/C [15] was 90.3%, the viability, T/C [16] was 88.3% and the viability, T/C [17] was 78.4%. The viability, T/C [18] was 71.9%, the viability, T/C (second compound 0.316 µM, first compound 3.16 µM) was 79.3% and the viability, T/C (second compound 0.316 µM, first compound 10 µM) was 26.4%. For the same compound, the viability, T/C [19] was 84.9%, the viability, T/C [20] was 96.4% and the viability, T/C [21] was 84.2%. It also gave a viability, T/C [22] of 86.4%, a viability, T/C (second compound 1 µM, first compound 3.16 µM) of 66.8% and a viability, T/C (second compound 1 µM, first compound 10 µM) of 28.5%. The viability, T/C [23] was 85.5%, the viability, T/C [24] was 89.3% and the viability, T/C [25] was 89.5%. It also gave a viability, T/C [26] of 79.3%, a viability, T/C (second compound 3.16 µM, first compound 3.16 µM) of 73.1% and a viability, T/C (second compound 3.16 µM, first compound 10 µM) of 32.6%. The viability, T/C [27] was 104%, the viability, T/C [28] was 83.5% and the viability, T/C [29] was 94%. It also gave a viability, T/C [30] of 77.5%, a viability, T/C (second compound 10 µM, first compound 3.16 µM) of 71.4% and a viability, T/C (second compound 10 µM, first compound 10 µM) of 39.9%.

With `O=C(c1cc(Cc2n[nH]c(=O)c3ccccc23)ccc1F)N1CCN(C(=O)C2CC2)CC1` the viability, T/C (compound 0.0316 µM) was 98.8% and 31.4% and 107%, the viability, T/C (compound 0.1 µM) was 107% and 36% and 112% and the viability, T/C (compound 0.316 µM) was 99.5% and 36% and 104%. The viability, T/C (compound 1 µM) was 87.5% and 38% and 104%, the viability, T/C (compound 3.16 µM) was 121% and 40.2% and 95.3% and the viability, T/C (compound 10 µM) was 89.1% and 32.3% and 94.1%.

In the case of `C#Cc1c(F)ccc2cc(O)cc(-c3ncc4c(N5CC6CCC(C5)N6)nc(OCC56CCCN5CC(F)C6)nc4c3F)c12` (stereo not drawn), the viability, T/C (compound 0.0316 µM) is reported as 105% and 99.2% and 101%, the viability, T/C (compound 0.1 µM) is reported as 106% and 111% and 92.5% and the viability, T/C (compound 0.316 µM) is reported as 92.2% and 97.5% and 113%. The viability, T/C (compound 1 µM) was 105% and 93.2% and 113%, the viability, T/C (compound 3.16 µM) was 110% and 93.3% and 94.4% and the viability, T/C (compound 10 µM) was 106% and 94.6% and 107%. For the same compound, the IC50 (curve of compound) was over 10 µM.

Reference: PubChem BioAssay AID1963825 (Molecular Pharmacology Branch, DTP, NCI, 2024)
